{"source": "patent US12343326B2", "about": "“Psychoactive medicines and their use for treating psychiatric and neurological conditions and disorders” (Transcend Therapeutics, Inc., priority 2021, dated 2025)", "key": {"5HT2A receptor": {"biological_target": "T1, 5HT2A receptor (Homo sapiens, UniProt P28223)", "T1 construct": "beta-galactosidase enzyme fragment (PathHunter complementation tag); host or cells: PathHunter cell lines", "T1 sequence (P28223 whole entry, the tested form may be a part)": "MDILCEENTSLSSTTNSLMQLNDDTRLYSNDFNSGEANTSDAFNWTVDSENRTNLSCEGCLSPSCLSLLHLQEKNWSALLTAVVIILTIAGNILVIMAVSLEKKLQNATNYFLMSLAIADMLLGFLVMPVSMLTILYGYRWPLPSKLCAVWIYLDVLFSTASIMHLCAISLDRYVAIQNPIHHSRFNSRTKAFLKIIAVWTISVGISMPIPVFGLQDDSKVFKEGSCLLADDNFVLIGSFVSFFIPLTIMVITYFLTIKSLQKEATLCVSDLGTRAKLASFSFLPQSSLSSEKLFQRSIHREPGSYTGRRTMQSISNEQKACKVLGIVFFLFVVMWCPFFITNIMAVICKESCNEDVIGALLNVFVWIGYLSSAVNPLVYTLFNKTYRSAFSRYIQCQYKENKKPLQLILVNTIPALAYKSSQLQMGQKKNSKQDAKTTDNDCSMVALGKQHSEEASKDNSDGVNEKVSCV", "assay": "GPCRmax screen, agonist mode", "format": "cell-based", "conditions": "1 or 10 mM; threshold 30%"}, "5HT2C receptor [1]": {"biological_target": "T2, 5HT2C receptor (Homo sapiens, UniProt P28335)", "T2 construct": "beta-galactosidase enzyme fragment (PathHunter complementation tag); host or cells: PathHunter cell lines", "T2 sequence (P28335 33-458)": "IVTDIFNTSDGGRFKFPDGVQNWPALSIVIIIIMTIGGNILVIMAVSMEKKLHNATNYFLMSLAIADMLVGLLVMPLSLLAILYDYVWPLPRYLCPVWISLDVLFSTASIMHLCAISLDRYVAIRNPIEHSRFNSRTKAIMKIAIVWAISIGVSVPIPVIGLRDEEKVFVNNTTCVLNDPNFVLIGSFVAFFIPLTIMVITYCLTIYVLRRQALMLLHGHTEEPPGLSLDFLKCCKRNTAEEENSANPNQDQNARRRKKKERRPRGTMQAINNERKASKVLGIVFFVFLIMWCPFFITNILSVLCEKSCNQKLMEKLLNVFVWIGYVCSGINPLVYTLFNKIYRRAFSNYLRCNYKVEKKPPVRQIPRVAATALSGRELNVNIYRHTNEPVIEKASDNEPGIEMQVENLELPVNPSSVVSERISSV", "assay": "GPCRmax screen, antagonist mode", "format": "cell-based", "conditions": "1 or 10 mM; threshold 50%"}, "[2]": {"conditions": "retrospective reports / meta-analysis of overdose deaths; cited from earlier work"}, "[3]": {"tested_on": "myelin basic protein (MBP)", "assay": "Immunohistochemistry of myelin basic protein", "format": "in vivo, rat", "conditions": "10 mg/kg IP, 24 h", "procedure": "Immunohistochemistry: The in-life portion of the study was conducted at WuXi Apptec (Cranbury, NJ). Sectioning and staining of brains took place at Neuroscience Associates (NSA, Knoxville, TN). […] Brains were post-fixed in PFA before shipment to NSA for processing and staining. Hemisected brains were mounted, sectioned and stained using standard protocols with myelin-basic protein primary antibody (MBP SMI-99, 1:5000, Biolegend, San Diego, CA) and anti-mouse biotinylated secondary antibody (BA-2001, Vector Laboratories, Newark, CA). Slides were imaged using a Huron Digital Pathology TissueScope LE120 whole slide scanning system. 20× objective was used with a 0.4 μm/pixel resolution."}, "[4]": {"tested_on": "rats (Sprague Dawley; Flinders Sensitive Line)", "conditions": "cited from earlier work"}, "5HT2C receptor [5]": {"biological_target": "T2, 5HT2C receptor", "assay": "GPCRmax screen, agonist mode", "format": "cell-based", "conditions": "1 or 10 mM; threshold 30%"}, "mice": {"tested_on": "mice", "conditions": "MDMA 7.5 mg/kg 30 minutes prior to extinction training (Young et al. 2015); cited from earlier work"}, "[6]": {"tested_on": "gene expression in amygdala, frontal cortex, hippocampus", "assay": "RNA-sequencing of brain areas after a single dose", "format": "in vivo, rat"}}, "note": "Read-outs that look alike come from different tables or passages of the source."}
{"compound": "CNC(C)Cc1ccc2c(c1)OCO2", "note": "(racemic) [MDMA, 3,4-Methylenedioxymethamphetamine]", "values": [{"measurement": "agonist % activity", "setting": "5HT2A receptor", "result": 27.5, "unit": "%"}, {"measurement": "antagonist activity (% inhibition)", "setting": "5HT2C receptor [1]", "result": 52.2, "unit": "%"}, {"measurement": "blood concentration in overdose deaths", "setting": "[2]", "result": "478 to 53900", "unit": "ng/mL"}, {"measurement": "MBP expression, basolateral nucleus of the amygdala, vs. vehicle", "setting": "[3]", "result": "significant reduction in MBP"}, {"measurement": "MBP expression, central nucleus of the amygdala, vs. vehicle", "setting": "[3]", "result": "significant reduction in MBP"}, {"measurement": "MBP expression, cortex (control region)", "setting": "[3]", "result": "No change in MBP"}, {"measurement": "reduction in immobility (FST)", "setting": "[4]; MDMA 5 mg/kg, Flinders Sensitive Line rats", "result": 45, "unit": "%"}, {"measurement": "reduction in immobility (FST)", "setting": "[4]; MDMA 5 mg/kg, Sprague Dawley rats (Majumder et al. 2011)", "result": 45, "unit": "%"}, {"measurement": "reduction in immobility (FST)", "setting": "[4]; MDMA 10 mg/kg, Flinders Sensitive Line rats", "result": 93, "unit": "%"}, {"measurement": "reduction in immobility (FST)", "setting": "[4]; MDMA 10 mg/kg, Sprague Dawley rats (Majumder et al. 2011)", "result": 78, "unit": "%"}, {"measurement": "agonist % activity", "setting": "5HT2C receptor [5]", "result": 28.0, "unit": "%"}, {"measurement": "reduced freezing vs. saline (extinction recall)", "setting": "mice", "result": 35, "unit": "%"}, {"measurement": "more genes regulated than methylone, frontal cortex", "setting": "[6]; 10 mg/kg IP", "result": "~72", "unit": "%"}, {"measurement": "genes regulated by MDMA that are also regulated by methylone, amygdala", "setting": "[6]; 10 mg/kg IP each", "result": 7, "unit": "%"}]}
